Assay results reported in US11518754B2, “Radiolabeled pharmaceuticals and methods of making and using same” (YALE UNIVERSITY, priority 2017, dated 2022).
Like-named read-outs stand apart in the source and are kept apart here. Values belong to the compound of their own block, whether it stands above or below them.

Tests used:
SV2A [1] = target: SV2A (Rattus norvegicus (Rat), UniProt Q02563)
Method: One Sprague Dawley rat was euthanized with carbon dioxide inhalation. The brain was harvested, rapidly frozen on dry ice and then stored at −80° C. The whole brain homogenates were obtained following published procedures. The final homogenate was suspended in 20 mM Tris-HCl buffer (pH 7.4) containing 250 mM of sucrose at a wet tissue concentration of 100 mg/mL and stored at −80° C. until use.
For competition binding experiments, 0.5 mg of the rat brain homogenates in 800 μL of binding buffer (2 mM MgCl2 in 50 mM Tris*HCl, pH=7.4) were incubated on a thermoshaker at 37° C. for 30 min with 100 μL (R)-^11C-3 or (R)-^18F-11 and 100 μL of the compound over a range of concentrations (from 0.1 to 100 nM). Nonspecific binding was defined as the residual binding observed in the presence of 1 mM levetiracetam (100 μL). At completion of the incubation period, the membrane-bound radioligand was recovered using rapid filtration through GF/B glass fiber filters (13 mm GD/X, Whatman Inc.) which were pre-soaked for at least 30 min in 0.5% polyethyleneimine (PEI). The membranes were washed twice with 1 mL of ice-cooled binding buffer. The binding mixtures, filters and filtrates were counted using cross-calibrated gamma counters (1480 & 2480 WIZARD; Perkin-Elmer). Values of IC50 were calculated using the [sequence] PRISM™ software and converted to inhibition constants (Ki) by the Cheng-Prusoff equation.

SV2A [2] = target: SV2A (Macaca mulatta, UniProt H9EQH8); assay: PET imaging studies in rhesus monkeys; conditions: for blocking of radiotracer specific binding to SV2A: levetiracetam 30 mg/kg i.v. or UCB-J 150 μg/kg i.v. before radiotracer injection; for Binding potential (BPND): from VT, centrum semiovale as reference region; for Displacement of radiotracer binding by levetiracetam: levetiracetam 30 mg/kg i.v. infused 60 or 90 min post injection of the radiotracer; for time to SUV peak in gray matter regions: rhesus monkey, in vivo, iv
Sequence of SV2A (Macaca mulatta, UniProt H9EQH8) (H9EQH8 1-742): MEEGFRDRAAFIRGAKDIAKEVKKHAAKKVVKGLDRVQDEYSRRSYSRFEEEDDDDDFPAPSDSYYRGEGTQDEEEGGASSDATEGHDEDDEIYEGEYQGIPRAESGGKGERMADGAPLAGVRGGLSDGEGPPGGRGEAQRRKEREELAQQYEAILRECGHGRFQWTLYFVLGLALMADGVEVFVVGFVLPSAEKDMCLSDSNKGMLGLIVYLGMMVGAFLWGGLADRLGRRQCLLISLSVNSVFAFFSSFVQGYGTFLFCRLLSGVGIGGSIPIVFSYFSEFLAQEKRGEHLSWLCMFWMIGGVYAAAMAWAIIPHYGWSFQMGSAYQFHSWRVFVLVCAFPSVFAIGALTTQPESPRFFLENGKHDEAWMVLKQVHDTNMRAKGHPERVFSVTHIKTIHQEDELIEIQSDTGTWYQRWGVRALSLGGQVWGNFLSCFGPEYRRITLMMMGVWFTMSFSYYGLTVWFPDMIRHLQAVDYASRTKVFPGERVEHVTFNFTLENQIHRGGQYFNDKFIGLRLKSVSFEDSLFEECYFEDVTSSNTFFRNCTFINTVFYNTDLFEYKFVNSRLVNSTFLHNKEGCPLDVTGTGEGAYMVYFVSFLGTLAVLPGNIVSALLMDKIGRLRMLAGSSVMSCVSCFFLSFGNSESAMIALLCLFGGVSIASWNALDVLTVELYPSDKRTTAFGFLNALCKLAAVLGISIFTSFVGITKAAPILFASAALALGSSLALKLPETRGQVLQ
Method: Experiments were performed in rhesus monkeys (Macaca mulatta). Rhesus monkeys were sedated using intramuscular (i.m.) injection of ketamine and glycopyrrolate approximately 2 hours before the PET scan and anesthesia was maintained with isoflurane (1.5%-2.5%) for the duration of the experiments. Baseline PET scans were obtained after intravenous (i.v.) injection of ^11C-3, ^18F-3, ^18F-4, ^18F-5, ^18F-10, ^18F-11, or ^18F-12.
Arterial blood samples were collected during the PET scans to calculate the plasma input function and to determine the unmetabolized parent fraction using the automatic column-switching HPLC system. Plasma free fraction (fp) was measured in triplicate using the ultrafiltration method.
PET scans of the brain were acquired using the FOCUS 220 PET scanner (Siemens Preclinical Solutions) with a reconstructed image resolution of approximately 1.5 mm. After a transmission scan, the radioligand was injected i.v. as a 3 min slow bolus by an infusion pump (PHD 22/2000; Harvard Apparatus). List-mode data were acquired for 120-180 min and binned into sinograms with an applicable number of frames. Scan data were reconstructed with a Fourier rebinning/filtered backprojection algorithm with corrections for attenuation, scanner normalization, radiation scatter, and randoms. Regions of interest were manually delineated on a single representative anatomic rhesus monkey MR image registered to a template image. The regions used in this study were amygdala, brain stem, caudate, centrum semiovale, cerebellum, cingulate cortex, frontal cortex, globus pallidus, insular cortex, nucleus accumbens, occipital cortex, pons, putamen, temporal cortex, and thalamus. Registration parameters were obtained to apply the regions of interest to individual PET scans, and regional time-activity curves were generated. Regional time-activity curves of the brain were analyzed with the 1-tissue-(1T) compartment model. Fit quality was compared with the 2-tissue model and the multilinear analysis method to calculate VT.
Typical injected radioactivity amount was 0.5-5 mCi per injection, with typical injected mass amount of 1-10 μg.
Specific binding to SV2A was further examined for ^11C-3, ^18F-3, and ^18F-11 in blocking studies, where levetiracetam or UCB-J ((R)-3) was i.v. infused before injection of the radiotracers.

[3] = Plasma free fraction (fp) by ultrafiltration method; type: in vitro ADME, rhesus monkeys (Macaca mulatta); conditions: plasma (from arterial blood samples), rhesus monkey plasma
[4] = converted from IC50 by the Cheng-Prusoff equation
[5] = rat brain homogenates, radioligand (R)-11C-3 or (R)-18F-11, 37° C., 30 min
[6] = IC50, rat brain homogenates, radioligand (R)-11C-3 or (R)-18F-11, 37° C., 30 min
[7] = Ki, converted from IC50 by the Cheng-Prusoff equation

Sequence of SV2A (Rattus norvegicus (Rat), UniProt Q02563) (Q02563 whole entry, the tested form may be a part): as the sequence (H9EQH8 1-742) above, with D53E, S62A, S64G, T71A, E144D, A154T, G440S, S482A, M634L counted along it

SMILES: Cc1cnccc1CN1CC(c2ccc(F)c(F)c2)CC1=O (single isomer, unassigned) [(R)-4, 4-(3,4-difluorophenyl)-1-((3-methylpyridin-4-yl)methyl)pyrrolidin-2-one]
- IC50 (SV2A [1]): 12.6 nM
- Ki (SV2A [1]): 2.08 nM

SMILES: Cc1cnccc1CN1C[C@H](c2ccc(F)c(F)c2)CC1=O (single isomer, unassigned) [(S)-4, 4-(3,4-difluorophenyl)-1-((3-methylpyridin-4-yl)methyl)pyrrolidin-2-one]
- Ki (SV2A [1]; [4]): 9.43 nM
- IC50 (SV2A [1]; [5]): 57 nM

SMILES: Cc1cnccc1CN1CC(c2cccc(F)c2)CC1=O (single isomer, unassigned) [(R)-11, 4-(3-Fluorophenyl)-1-((3-methylpyridin-4-yl)methyl)pyrrolidin-2-one]
- IC50 (SV2A [1]; [6]): 26.9 nM
- Ki (SV2A [1]; [7]): 4.44 nM

SMILES: Cc1cnccc1CN1CC(c2cc(F)c(F)c(F)c2)CC1=O (single isomer, unassigned) [(R)-3, 1-((3-methylpyridin-4-yl)methyl)-4-(3,4,5-trifluorophenyl) pyrrolidin-2-one]
- blocking of radiotracer specific binding to SV2A (SV2A [2]): blocking of specific binding
- IC50 (SV2A [1]; [6]): 1.62 nM
- Ki (SV2A [1]; [7]): 0.27 nM

SMILES: O=C1C[C@H](c2cccc(F)c2)CN1Cc1ccncc1 (single isomer, unassigned) [(R)-12, 4-(3-Fluorophenyl)-1-(pyridin-4-ylmethyl)pyrrolidin-2-one]
- Ki (SV2A [1]; [4]): 4.43 nM
- IC50 (SV2A [1]; [5]): 26.8 nM

SMILES: Cc1cnccc1CN1CC(c2cccc(F)c2)CC1=O (single isomer, unassigned) [(S)-11, 4-(3-Fluorophenyl)-1-((3-methylpyridin-4-yl)methyl)pyrrolidin-2-one]
- IC50 (SV2A [1]; [6]): 109 nM
- Ki (SV2A [1]; [7]): 18.2 nM

SMILES: Cc1cnccc1CN1CC(c2cc(F)c(F)c(F)c2)CC1=O (centres unmarked) [^18F-3, 1-((3-methylpyridin-4-yl)methyl)-4-(3,4,5-trifluorophenyl) pyrrolidin-2-one]
- Binding potential (BPND) (SV2A [2]; Amygdala): 1.65 ± 1.04
- Binding potential (BPND) (SV2A [2]; Brainstem): 0.84 ± 0.28
- Binding potential (BPND) (SV2A [2]; Caudate nucleus): 2.54 ± 0.60
- Binding potential (BPND) (SV2A [2]; Cerebellum): 1.88 ± 0.42
- Binding potential (BPND) (SV2A [2]; Cingulate cortex): 4.04 ± 0.38
- Binding potential (BPND) (SV2A [2]; Frontal cortex): 3.90 ± 0.54
- Binding potential (BPND) (SV2A [2]; Globus pallidus): 1.08 ± 0.59
- Binding potential (BPND) (SV2A [2]; Hippocampus): 1.99 ± 0.75
- Binding potential (BPND) (SV2A [2]; Insular cortex): 3.51 ± 0.56
- Binding potential (BPND) (SV2A [2]; Nucleus accumbens): 3.85 ± 0.57
- Binding potential (BPND) (SV2A [2]; Occipital cortex): 3.35 ± 0.27
- Binding potential (BPND) (SV2A [2]; Pons): 0.80 ± 0.26
- Binding potential (BPND) (SV2A [2]; Putamen): 2.62 ± 0.46
- Binding potential (BPND) (SV2A [2]; Temporal cortex): 3.14 ± 0.41
- Binding potential (BPND) (SV2A [2]; Thalamus): 2.53 ± 1.18
- Displacement of radiotracer binding by levetiracetam (SV2A [2]): reduced the binding of these tracers to a significant extent
- Uptake of radiotracer in blocking studies (SV2A [2]; levetiracetam (30 mg/kg) or UCB-J (150 μg/kg) i.v. 10 min before radiotracer injection): reduced to background levels
- time to SUV peak in gray matter regions (SV2A [2]): slower
- fraction unbound [3]: 0.42 ± 0.06

SMILES: Cc1cnccc1CN1C[C@H](c2cc(F)cc(F)c2)CC1=O (single isomer, unassigned) [(S)-5, 4-(3,5-Difluorophenyl)-1-((3-methylpyridin-4-yl)methyl)pyrrolidin-2-one]
- Ki (SV2A [1]; [4]): 115 nM
- IC50 (SV2A [1]; [5]): 698 nM

SMILES: Cc1cnccc1CN1C[C@H](c2cc(F)c(F)c(F)c2)CC1=O (single isomer, unassigned) [(S)-3, 1-((3-methylpyridin-4-yl)methyl)-4-(3,4,5-trifluorophenyl) pyrrolidin-2-one]
- Ki (SV2A [1]; [4]): 12.5 nM
- IC50 (SV2A [1]; [5]): 75.6 nM

More lines, main results first:

- blocking of radiotracer specific binding to SV2A (SV2A [2]): blocking of specific binding
SMILES: CC[C@@H](C(N)=O)N1CCCC1=O [levetiracetam, reference compound]

- Binding potential (BPND) (SV2A [2]; Amygdala): 0.66
- Binding potential (BPND) (SV2A [2]; Brainstem): 0.75
- Binding potential (BPND) (SV2A [2]; Caudate nucleus): 1.72
- Binding potential (BPND) (SV2A [2]; Cerebellum): 0.55
- Binding potential (BPND) (SV2A [2]; Cingulate cortex): 2.60
- Binding potential (BPND) (SV2A [2]; Frontal cortex): 2.51
- Binding potential (BPND) (SV2A [2]; Globus pallidus): 0.95
- Binding potential (BPND) (SV2A [2]; Hippocampus): 1.35
- Binding potential (BPND) (SV2A [2]; Insular cortex): 2.41
- Binding potential (BPND) (SV2A [2]; Nucleus accumbens): 2.47
- Binding potential (BPND) (SV2A [2]; Occipital cortex): 2.30
- Binding potential (BPND) (SV2A [2]; Pons): 0.73
- Binding potential (BPND) (SV2A [2]; Putamen): 1.86
- Binding potential (BPND) (SV2A [2]; Temporal cortex): 2.21
- Binding potential (BPND) (SV2A [2]; Thalamus): 1.65
- time to SUV peak in gray matter regions (SV2A [2]): ≤ 10 min
- fraction unbound [3]: 0.41
SMILES: Cc1cnccc1CN1CC(c2ccc(F)c(F)c2)CC1=O (centres unmarked) [^18F-4, 4-(3,4-difluorophenyl)-1-((3-methylpyridin-4-yl)methyl)pyrrolidin-2-one]
- Displacement of radiotracer binding by levetiracetam (SV2A [2]): reduced the binding of these tracers to a significant extent

- IC50 (SV2A [1]): 28.2 nM
- Ki (SV2A [1]): 4.66 nM
SMILES: O=C1CC(c2cccc(F)c2)CN1Cc1ccncc1 (single isomer, unassigned) [(S)-12, 4-(3-Fluorophenyl)-1-(pyridin-4-ylmethyl)pyrrolidin-2-one]

- Ki (SV2A [1]; [4]): 0.58 nM
- IC50 (SV2A [1]; [5]): 3.52 nM
SMILES: Cc1cnccc1CN1C[C@@H](c2cc(F)cc(F)c2)CC1=O (single isomer, unassigned) [Compound (R)-5, 4-(3,5-Difluorophenyl)-1-((3-methylpyridin-4-yl)methyl)pyrrolidin-2-one]

- Binding potential (BPND) (SV2A [2]; Amygdala): 0.04
- Binding potential (BPND) (SV2A [2]; Brainstem): −0.06
- Binding potential (BPND) (SV2A [2]; Caudate nucleus): 0.75
- Binding potential (BPND) (SV2A [2]; Cerebellum): 0.25
- Binding potential (BPND) (SV2A [2]; Cingulate cortex): 1.45
- Binding potential (BPND) (SV2A [2]; Frontal cortex): 1.28
- Binding potential (BPND) (SV2A [2]; Globus pallidus): 0.29
- Binding potential (BPND) (SV2A [2]; Hippocampus): 0.44
- Binding potential (BPND) (SV2A [2]; Insular cortex): 1.09
- Binding potential (BPND) (SV2A [2]; Nucleus accumbens): 1.18
- Binding potential (BPND) (SV2A [2]; Occipital cortex): 0.90
- Binding potential (BPND) (SV2A [2]; Pons): −0.09
- Binding potential (BPND) (SV2A [2]; Putamen): 0.86
- Binding potential (BPND) (SV2A [2]; Temporal cortex): 0.95
- Binding potential (BPND) (SV2A [2]; Thalamus): 0.42
- time to SUV peak in gray matter regions (SV2A [2]): ≤ 10 min
- fraction unbound [3]: 0.61
SMILES: O=C1CC(c2cccc(F)c2)CN1Cc1ccncc1 (centres unmarked) [^18F-12, 4-(3-Fluorophenyl)-1-(pyridin-4-ylmethyl)pyrrolidin-2-one]
- Displacement of radiotracer binding by levetiracetam (SV2A [2]): reduced the binding of these tracers to a significant extent
